Drawing on patent US7034056B2, “Aryl and biaryl compounds having MCH modulatory activity” (Pharmacopeia Drug Discovery, inc., priority 2001, dated 2006), this text covers Ki for 62 compounds.

For the first experiment, the target named is T1, hMCHR (MCH receptor) (Homo sapiens, UniProt Q99705).
T1 construct: (or internally produced); host or cells: CHO (Chinese hamster ovary) cells, membrane preparation
T1 sequence (Q99705 whole entry): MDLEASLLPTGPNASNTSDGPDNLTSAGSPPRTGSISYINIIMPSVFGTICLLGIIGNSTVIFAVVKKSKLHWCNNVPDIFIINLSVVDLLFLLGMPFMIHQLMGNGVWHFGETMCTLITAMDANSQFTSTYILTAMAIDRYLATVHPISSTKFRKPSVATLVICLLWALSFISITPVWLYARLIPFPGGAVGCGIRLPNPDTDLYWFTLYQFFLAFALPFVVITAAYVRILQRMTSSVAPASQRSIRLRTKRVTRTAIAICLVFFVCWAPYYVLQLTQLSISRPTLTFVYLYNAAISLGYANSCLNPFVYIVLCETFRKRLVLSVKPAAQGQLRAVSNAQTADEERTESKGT
In words: MCH Assay PCOP Protocol ([125I]-MCH SPA binding to hMCHR-CHO membranes).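 For Activity (Ki range): A 0.4–50 nM B 51–500 nM C 501–2500 nM.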 Conditions: [125I]-MCH 0.5 nM, hMCHR-CHO membranes; read-out: Activity (ranges of Ki values). Summed up:
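SPA binding with 10 μg hMCHR-CHO membranes and WGA-SPA beads in 25 mM HEPES pH 7.4, 10 mM NaCl, 10 mM MgCl2, 5 mM MnCl2, 0.1% BSA.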
On to `CS(=O)(=O)NC1CCN(CCC(CNC(=O)Nc2cc(Cl)cc(Cl)c2)c2ccc(Cl)cc2)CC1` (centres unmarked) [Example 179], for which the Ki lay in the range of 51 to 500 nM.

As for `CN(C)CCCNCCC(CNC(=O)Nc1cc(Cl)cc(Cl)c1)c1ccc(-c2ccc(OC(F)(F)F)cc2)cc1` (centres unmarked) [Example 101], the Ki fell in the range of 51 to 500 nM.

For the compound `O=C(NCC(CCN1CCC(NC(=O)c2ccno2)C1)c1ccc(Cl)cc1)Nc1cc(Cl)cc(Cl)c1` (centres unmarked) [Example 193], the Ki is 51 to 500 nM.

As to `CNCCC(CNC(=O)Nc1ccc(F)c(Cl)c1)c1ccc(-c2cccc(C#N)c2)cc1` (centres unmarked) [Example 46], the Ki lay within 0.4 to 50 nM.

Consider `Cc1ccc(C(CCN2CCC(NC(=O)c3ccno3)CC2)CNC(=O)Nc2cc(Cl)cc(Cl)c2)cc1` (centres unmarked) [Example 205], for which the Ki lay in the range of 501 to 2500 nM.

On to `Cc1ccc(C(CCNC2CCCC2)CNC(=O)Nc2ccc(Cl)c(Cl)c2)cc1` (centres unmarked) [Example 127], for which the Ki was in the range of 51 to 500 nM.

Take `N#Cc1cccc(-c2ccc(C(CCNC3CC3)CNC(=O)c3cc(F)cc(F)c3)cc2)c1` (centres unmarked) [Example 69]: the inhibitory constant (Ki) lay within 51 to 500 nM.

With `COc1cccc(NC(=O)NCC(CCN(C)C)c2ccc(-c3cccc(C#N)c3)cc2)c1` (centres unmarked) [Example 63], the Ki fell in the range of 0.4 to 50 nM.

`O=C(NCC(CCNC1CCCC1)c1cccc(-c2ccc(Cl)c(Cl)c2)c1)Nc1cc(Cl)cc(Cl)c1` (centres unmarked) [Example 157]: the Ki is 51 to 500 nM.

On to `CNCCC(CNC(=O)Nc1ccc(F)cc1)c1ccc(-c2cccc(C#N)c2)cc1` (centres unmarked) [Example 60], for which the Ki lay within 0.4 to 50 nM.

With `CCNC(=O)NC1CCN(CCC(CNC(=O)Nc2cc(Cl)cc(Cl)c2)c2ccc(-c3cccc(C#N)c3)cc2)C1` [Example 27, (R,S)-1-1-{3-(3′-Cyano-biphenyl-4-yl)-4-[3 (3,5-dichloro-phenyl)-ureido]-butyl}-pyrrolidin-3-yl)-3-ethyl-urea], the inhibitory constant (Ki) fell in the range of 501 to 2500 nM.

Take `CC(=O)NC1CCN(CCC(CNC(=O)Nc2cc(Cl)cc(Cl)c2)c2ccc(Cl)c(Cl)c2)C1` (centres unmarked) [Example 210]: the inhibitory constant (Ki) was 501 to 2500 nM.

Turning to `CC(=O)NC1CCN(CCC(CNC(=O)Nc2cc(Cl)cc(Cl)c2)c2ccc(C)cc2)C1` (centres unmarked) [Example 215], the Ki lay within 501 to 2500 nM.

Regarding `O=C(NCC(CCNC1CCCC1)c1ccc(Cl)c(Cl)c1)Nc1cccc(Cl)c1` (centres unmarked) [Example 130], the Ki was 51 to 500 nM.

With `CC(CCNC1CCCC1)(CNC(=O)Nc1ccc(Cl)c([N+](=O)[O-])c1)c1ccc(Cl)c(Cl)c1` (centres unmarked) [Example 105], the Ki lay within 51 to 500 nM.

On to `CS(=O)(=O)N(CCC(CNC(=O)Nc1cc(Cl)cc(Cl)c1)c1ccc(-c2cccc(C#N)c2)cc1)C1CCCC1` (centres unmarked) [Example 87], for which the Ki lay in the range of 501 to 2500 nM.

Regarding `O=C(NCC(CCNC1CCCC1)c1ccc2c(c1)OCO2)Nc1cc(Cl)cc(Cl)c1` (centres unmarked) [Example 106], the inhibition constant Ki lay in the range of 51 to 500 nM.

Take `COCC(=O)NC1CCN(CCC(CNC(=O)Nc2cc(Cl)cc(Cl)c2)c2ccc(Cl)cc2)CC1` (centres unmarked) [Example 192]: the Ki is 51 to 500 nM.

With `COc1ccccc1-c1cccc(C(CCNC2CCCC2)CNC(=O)Nc2cc(Cl)cc(Cl)c2)c1` (centres unmarked) [Example 164], the Ki lay in the range of 501 to 2500 nM.

On to `CC(C)NCCC(CNC(=O)Oc1ccc(Cl)cc1)c1ccc(-c2cccc(C#N)c2)cc1` (racemic) [Example 26, (R,S)-[-2-(3′-Cyano-biphenyl-4-yl)-4-isopropylaminobutyl]-carbamic acid-4-chlorophenyl ester], for which the inhibition constant Ki is 501 to 2500 nM.

As for `O=C(NCC(CCN1CCC(NC(=O)C2CCC2)CC1)c1ccc(Cl)c(Cl)c1)Nc1cc(Cl)cc(Cl)c1` (centres unmarked) [Example 191], the inhibitory constant (Ki) is 51 to 500 nM.

Consider `O=C(NCC(CCN1CCC(NC(=O)C2CCC2)CC1)c1ccc(Cl)cc1)Nc1cc(Cl)cc(Cl)c1` (centres unmarked) [Example 185], for which the Ki lay in the range of 51 to 500 nM.

Consider `Cc1ccc(C(CCN2CCC(NS(C)(=O)=O)C2)CNC(=O)Nc2cc(Cl)cc(Cl)c2)cc1` (centres unmarked) [Example 207], for which the inhibition constant Ki lay within 501 to 2500 nM.

Turning to `Cc1ccc(C(CCNC2CCCC2)CNC(=O)Nc2cc(Cl)cc(Cl)c2)cc1C` (centres unmarked) [Example 103], the Ki is 51 to 500 nM.

In the case of `CN(C)CCCNCCC(CNC(=O)Nc1cc(Cl)cc(Cl)c1)c1ccc(-c2ccc(F)c(F)c2)cc1` (centres unmarked) [Example 92], the Ki is 0.4 to 50 nM.

The experiment is the same for the next values; noted with them: [125I]-MCH SPA binding, hMCHR-CHO membranes; Ki class ranges; read-out: Activity (range of Ki).
Turning to `CS(=O)(=O)c1ccc(CNCCC(CNC(=O)Nc2cc(C(F)(F)F)cc(C(F)(F)F)c2)c2ccc(Cl)c(Cl)c2)cc1` (centres unmarked) [Example 436], the Ki was 501 to 2500 nM.

With `O=C(Cc1ccc(Cl)c(Cl)c1)NCC(CCN1CCC(N2CCCCC2)CC1)c1ccc(Cl)c(Cl)c1` (centres unmarked) [Example 448], the Ki fell in the range of 501 to 2500 nM.

As to `CC1CCCN(CCC(CNC(=O)c2cc(C(F)(F)F)cc(C(F)(F)F)c2)c2ccc(Cl)c(Cl)c2)C1` (centres unmarked) [Example 417], the Ki lay within 501 to 2500 nM.

As for `Cc1ccc(C(CCN2CCC(N3CCCCC3)CC2)CNC(=O)Cc2ccc(Cl)c(Cl)c2)cc1` (centres unmarked) [Example 451], the Ki is 501 to 2500 nM.

As for `O=C(NCC(CCNCCN1CCOCC1)c1ccc(Cl)c(Cl)c1)Nc1cc(C(F)(F)F)cc(C(F)(F)F)c1` (centres unmarked) [Example 428], the Ki lay within 501 to 2500 nM.

As to `Cc1ccc(C(CCN2CCCCC2)CNC(=O)Nc2cc(C(F)(F)F)cc(C(F)(F)F)c2)cc1` (centres unmarked) [Example 445], the Ki lay within 501 to 2500 nM.

On to `O=C(NCC(CCN1CCC(CN2CCCCC2)CC1)c1ccc(Cl)c(Cl)c1)Nc1cc(C(F)(F)F)cc(C(F)(F)F)c1` (centres unmarked) [Example 429], for which the inhibition constant (Ki) was 501 to 2500 nM.

On to `CC(Cc1c[nH]c2ccccc12)NCCC(CNC(=O)Nc1cc(C(F)(F)F)cc(C(F)(F)F)c1)c1ccc(Cl)c(Cl)c1` (centres unmarked) [Example 438], for which the Ki lay within 501 to 2500 nM.

The same experiment, now with this note: [125I]-MCH binding to hMCHR-CHO membranes; class symbols for ranges of Ki; read-out: Activity (Ki range).
As to `O=C(NCC(CCNCCc1c[nH]c2ccccc12)c1ccc(Cl)c(Cl)c1)Nc1cc(Cl)cc(Cl)c1` (centres unmarked) [Example 294], the Ki was in the range of 501 to 2500 nM.

Turning to `CN(C)CCCNCCC(CNC(=O)Nc1cc(Cl)cc(Cl)c1)c1ccc(Cl)c(Cl)c1` (centres unmarked) [Example 304], the Ki lay within 501 to 2500 nM.

`COc1ccc2c(CCNCCC(CNC(=O)c3cc(C(F)(F)F)cc(C(F)(F)F)c3)c3ccc(Cl)c(Cl)c3)c[nH]c2c1` (centres unmarked) [Example 394]: the Ki fell in the range of 501 to 2500 nM.

As to `O=C(NCC(CCNC1CCCC1)c1ccc(-c2ccc(O)cc2)cc1)Nc1cc(Cl)cc(Cl)c1` (centres unmarked) [Example 242], the Ki fell in the range of 51 to 500 nM.

Regarding `O=C(NCC(CCN1CCC(N2CCCCC2)CC1)c1ccc(Cl)c(Cl)c1)Nc1cccc([N+](=O)[O-])c1` (centres unmarked) [Example 317], the Ki fell in the range of 501 to 2500 nM.

With `CN(C)CCCNCCC(CNC(=O)Nc1cc(Cl)cc(Cl)c1)c1ccc(-c2cc(C(F)(F)F)cc(C(F)(F)F)c2)cc1` (centres unmarked) [Example 256], the Ki was 501 to 2500 nM.

Consider `CC(C)OCCCNCCC(C(=O)NCc1cc(C(F)(F)F)cc(C(F)(F)F)c1)c1ccc(Cl)c(Cl)c1` (centres unmarked) [Example 384], for which the Ki is 501 to 2500 nM.

On to `Cc1ccc(C(CCN2CCC(N)CC2)CNC(=O)Nc2cc(Cl)cc(Cl)c2)cc1` (centres unmarked) [Example 324], for which the Ki lay in the range of 501 to 2500 nM.

In the case of `O=C(NCC(CCNCCc1c[nH]c2cc(F)ccc12)c1ccc(Cl)c(Cl)c1)c1cc(C(F)(F)F)cc(C(F)(F)F)c1` (centres unmarked) [Example 415], the inhibitory constant (Ki) lay within 501 to 2500 nM.

In the case of `Cc1ccc(C(CCNC2CCCC2)CNC(=O)Nc2cc(Cl)cc(Cl)c2)cc1` (centres unmarked) [Example 271], the inhibition constant (Ki) was 51 to 500 nM.

In the case of `O=C(NCC(CCN1CCNCC1)c1ccc(Cl)c(Cl)c1)Nc1cc(Cl)cc(Cl)c1` (centres unmarked) [Example 308], the Ki is 501 to 2500 nM.

As to `O=C(NCC(CCNC1CCCC1)c1ccc(Cl)cc1)Nc1cc(Cl)cc(Cl)c1` (centres unmarked) [Example 267], the Ki was 51 to 500 nM.

`O=S(=O)(NCC(CCN1CCC(N2CCCCC2)CC1)c1ccc(Cl)c(Cl)c1)c1ccc(Cl)c(Cl)c1` (centres unmarked) [Example 372]: the inhibition constant Ki was in the range of 501 to 2500 nM.

For the compound `O=C(NCc1cc(C(F)(F)F)cc(C(F)(F)F)c1)C(CCNC1CCC1)c1ccc(Cl)c(Cl)c1` (centres unmarked) [Example 379], the Ki fell in the range of 501 to 2500 nM.

Turning to `O=C(NCC(CCNCCc1ccc(O)cc1)c1ccc(Cl)c(Cl)c1)Nc1cccc(C(F)(F)F)c1` (centres unmarked) [Example 293], the Ki fell in the range of 51 to 500 nM.

On to `O=C(NCC(CCN1CCCC1)c1cccc(Cl)c1)Nc1cc(C(F)(F)F)cc(C(F)(F)F)c1` (centres unmarked) [Example 334], for which the Ki lay within 501 to 2500 nM.

Take `CC1CCN(CCC(CNC(=O)c2cc(C(F)(F)F)cc(C(F)(F)F)c2)c2ccc(Cl)c(Cl)c2)CC1` (centres unmarked) [Example 405]: the inhibition constant Ki lay in the range of 501 to 2500 nM.

Take `O=C(NCC(CCN1CCCC1)c1ccc(Cl)c(Cl)c1)c1cc(C(F)(F)F)cc(C(F)(F)F)c1` (centres unmarked) [Example 406]: the Ki fell in the range of 501 to 2500 nM.

Turning to `CCOC(=O)N1CCC(NCCC(CNC(=O)Nc2ccc(F)c([N+](=O)[O-])c2)c2ccc(Cl)c(Cl)c2)CC1` (centres unmarked) [Example 264], the Ki was in the range of 501 to 2500 nM.

Regarding `O=C(NCC(CCN1CCNCC1)c1ccc(Cl)c(Cl)c1)Nc1ccc(Cl)c(Cl)c1` (centres unmarked) [Example 307], the Ki was 501 to 2500 nM.

Regarding `CN(CCC(CNC(=O)c1cc(C(F)(F)F)cc(C(F)(F)F)c1)c1ccc(Cl)c(Cl)c1)C1CCCCC1` (centres unmarked) [Example 408], the Ki was in the range of 501 to 2500 nM.

In the case of `O=C(NCC(CCNC1CCCC1)c1ccc(-c2ccc(C(F)(F)F)cc2)cc1)Nc1cc(Cl)cc(Cl)c1` (centres unmarked) [Example 250], the Ki fell in the range of 51 to 500 nM.

Consider `CN1CCCC1CCNCCC(CNC(=O)Nc1cccc(C(F)(F)F)c1)c1ccc(Cl)c(Cl)c1` (centres unmarked) [Example 300], for which the Ki was 501 to 2500 nM.

On to `CN(C)CCCNCCC(CNC(=O)Nc1ccc(Cl)c(Cl)c1)c1ccc(Cl)c(Cl)c1` (centres unmarked) [Example 305], for which the Ki was 501 to 2500 nM.

Take `CCOC(=O)N1CCC(NCCC(CNC(=O)Nc2ccc(F)c(Cl)c2)c2ccc(Cl)c(Cl)c2)CC1` (centres unmarked) [Example 260]: the Ki lay within 51 to 500 nM.

With `COc1ccc(C(CCNCCCN(C)C)CNC(=O)Nc2cc(C(F)(F)F)cc(C(F)(F)F)c2)cc1` (centres unmarked) [Example 345], the Ki is 501 to 2500 nM.

Take `COc1cc(-c2ccc(C(CCNC3CCCC3)CNC(=O)Nc3cc(Cl)cc(Cl)c3)cc2)cc(OC)c1OC` (centres unmarked) [Example 228]: the Ki was 51 to 500 nM.

Consider `COc1ccccc1-c1ccc(C(CCNCCCN(C)C)CNC(=O)Nc2cc(Cl)cc(Cl)c2)cc1` (centres unmarked) [Example 252], for which the Ki was in the range of 51 to 500 nM.

Take `O=C(NCc1cc(C(F)(F)F)cc(C(F)(F)F)c1)C(CCNCCCn1ccnc1)c1ccc(Cl)c(Cl)c1` (centres unmarked) [Example 388]: the Ki lay in the range of 501 to 2500 nM.
